In patent publication US4145554A, “3-Nitropyrazole derivatives” (Eli Lilly and Company, priority 1977, dated 1979):
In brackets after ≈: the same amount, converted by molar mass. Where two headings read alike, the source gives them in different places.

Columns and labels:
Mycoplasma gallisepticum = test: in vitro tube dilution test (MIC); type: cell-based; conditions: Mycoplasmoides gallisepticum; Mycoplasma gallisepticum, tube dilution; read-out: MIC
Source text: (§1) Our compound, 1-(2-hydroxyethyl)-3-nitro-4-pyrazolecarboxamide, has been extensively tested in vitro to determine the range of microorganisms against which it is active. The table of data below reports the minimum inhibitory concentration (MIC) at which the compound is effective in controlling a variety of microorganisms in a standard tube dilution test system. The MIC is reported as micrograms of compound per milliliter.
(§2) Other compounds of our invention have also been tested in the tube dilution test and shown to have in vitro activity against a number of microorganisms. The table below reports tests of a number of exemplary compounds against exemplary microorganisms. The compounds are identified by their numbers in the listing above. The data are reported as the MIC in micrograms per milliliter against the named exemplary microorganisms.

Escherichia coli = test: in vitro tube dilution test (MIC); type: cell-based; conditions: tube dilution, read-out: MIC
Source text: as §1, §2

Salmonella typhimurium = test: Salmonellosis in chickens, single injection to day-old chicks; type: in vivo; conditions: for responders at 60 mg/kg: Salmonella enterica, TYPHIMURIUM, 168 h, single injection of 60 mg./kg., seven days, read-out: Survival (converted)
Protocol: A number of our 3-nitropyrazoles have been tested against an induced infection of Salmonella typhimurium in day-old chicks. The test was conducted by administering a single injection of 60 mg./kg. of the compounds to each of five chicks. The following day, the chicks were challenged by the subcutaneous injection of a dispersion of S. typhimurium organisms sufficient to kill most or all of the untreated control chicks.
Some of the compounds were tested more than once, in which instances the data are reported as the total survivors from the multiple treatment groups. Untreated, challenged control groups of chicks were tested together with each batch of groups of chicks to which test compounds were administered. Since the mortality of the untreated control chicks varied somewhat from one group of tests to another, results of the untreated control groups are reported below with each test.

H. meleagridis [1] = test: Blackhead in poultry, chicks; type: in vivo
Protocol: (§3) One- to three-week-old chicks and turkey poults were obtained from homogeneous source flocks and allocated into treatment groups. Some groups were held as infected, untreated controls, and other groups were treated with 3-nitropyrazoles by administering the compounds in the birds' feed. Various concentrations of the pyrazoles were administered to determine the least concentration which protected the birds. A few days after the administration of medicated feed began, all of the birds were challenged by rectally administering a suspension of at least 5,000 H. meleagridis protozoa per chick. The challenge organisms had been originally obtained from infected chickens, and were grown in vitro to provide a supply of organisms for testing.
(§4) The birds were held for about seven days after the challenge was administered, during which time the administration of pyrazole-medicated feed was continued. Then all of the chicks, including the untreated, infected controls, were sacrificed and necropsied. The cecum and the liver of each bird were examined for characteristic H. meleagridis lesions.
(§5) For each compound, the lowest feed concentration which gave an active response is indicated. While feed consumption data were not taken during the tests, the birds ate at such a rate that a feed concentration of 0.02 percent is equivalent to a treatment rate of about 10 mg./kg./day.

Streptococcus sp. 80 = test: in vitro tube dilution test (MIC); type: cell-based; conditions: Streptococcus sp. 80, tube dilution; read-out: MIC
Source text: as §2

Salmonella dublin = test: in vitro tube dilution test (MIC); type: cell-based; conditions: Salmonella enterica; Salmonella dublin, tube dilution; read-out: MIC
Source text: (§6) The other preferred compounds of our invention have also been thoroughly tested in the in vitro tube dilution test.
as §2

[2] = tested on: Staphylococcus aureus sp. 1130; test: in vitro tube dilution test (MIC); type: cell-based; conditions: read-out: MIC
Source text: as §6, §2

Vibrio coli 3811 = test: in vitro tube dilution test (MIC); type: cell-based; conditions: Campylobacter coli; Vibrio coli 3811, tube dilution; read-out: MIC
Source text: as §6, §2

Erwinia amylovora = test: Fire blight of pear, in vivo greenhouse test
Protocol: An in vivo test was conducted against the fire blight organism, Erwinia amylovora. Plants infected with E. amylovora were sprayed with aqueous dispersions containing 100 ppm. and 500 ppm. of the test compounds. […] The compounds are identified below by their compound numbers in the above listing.

H. meleagridis [3] = test: Blackhead in poultry, turkeys; type: in vivo
Protocol: as §3, §4, §5

[4] = tested on: Mycoplasma gallisepticum 38502; test: in vitro tube dilution test (MIC); type: cell-based; conditions: Mycoplasmoides gallisepticum; Mycoplasma gallisepticum 38502, tube dilution
Source text: as §6

[5] = tested on: Staphylococcus aureus 3055; test: in vitro tube dilution test (MIC); type: cell-based; conditions: Staphylococcus aureus 3055, tube dilution
Source text: as §6

Pasteurella multocida = test: in vitro tube dilution test (MIC); type: cell-based; conditions: tube dilution, read-out: MIC
Source text: as §1, §6, §2

Streptococcus pyogenes = test: Tests in mice, Streptococcus pyogenes infection; type: in vivo; conditions: S. pyogenes, two subcutaneous doses of 83 mg./kg., 1 and 5 hours
Protocol: (§7) Groups of laboratory mice were inoculatd with E. coli or with Streptococcus pyogenes. The 3-nitropyrazoles were administered in two different modes to the infected mice. In one group of tests, the compound was administered in two subcutaneous doses of 83 mg./kg. each, given 1 and 5 hours after the mice were inoculated with the organism. The mice were observed, and the results reported below as the number of days the treated mice survived the challenge.
(§8) In the other group of tests, the dose of each compound which allowed 50 percent of the treated mice to survive the challenge was determined. Again, the compound was administered in subcutane divided doses, 1 and 5 hours post-inoculation.

E. coli = test: Tests in mice, E. coli infection; type: in vivo; conditions: for ED50: Escherichia coli, sc, subcutaneous, 1 and 5 hours post-inoculation; for Days Survived: two subcutaneous doses of 83 mg./kg., 1 and 5 hours
Protocol: as §7, §8

S. typhimurium = test: Salmonella typhimurium in chickens, medicated feed; type: in vivo, chicks; conditions: Test C, 200 gm./ton feed
avian E. coli = test: Colibacillosis in chickens, medicated feed; type: in vivo; conditions: 300 gm./ton feed; about 5 weeks old; 10^-2 dilution challenge; first test
Pseudomonas sp. = test: in vitro tube dilution test (MIC); type: cell-based
Source text: as §1, §6

Mycoplasma hyorhinis = test: in vitro tube dilution test (MIC); type: cell-based
Source text: as §1, §6

Salmonella pullorum Ill. = test: in vitro tube dilution test (MIC); type: cell-based; conditions: Salmonella enterica
Source text: as §1, §6

[6] = tested on: Salmonella heidelburg 1593; test: in vitro tube dilution test (MIC); type: cell-based; conditions: Salmonella heidelburg 1593, tube dilution
Source text: as §1, §6

[7] = tested on: Salmonella typhimurium 1335; test: in vitro tube dilution test (MIC); type: cell-based; conditions: Salmonella enterica; Salmonella typhimurium 1335, tube dilution
Source text: as §1, §6

Mycoplasma synoviae = test: in vitro tube dilution test (MIC); type: cell-based; conditions: Mycoplasmopsis synoviae, footnote 1: M. synoviae
Source text: as §1, §2

E. amylovora = test: Fire blight of apple, induced infection of McIntosh apple seedlings; type: in vivo; conditions: 6 days, scale 1 (symptoms in main stem) to 4 (complete control)
Source text: A typical test of one of our compounds against an induced E. amylovora infection of McIntosh apple seedlings will be reported. The compound, [2-(4-carbamoyl-3-nitropyrazol-1-yl)ethyl] phenyl carbonate, was sprayed on the seedlings as an aqueous dispersion at the concentrations shown below. Four replicate trees were used per treatment. After the spray had dried, each tree was challenged by punching a hole through the midvein at the tip of one leaf per plant, and placing a drop of an E. amylovora culture in the hole.
After 6 days, the trees were observed, and the control of the infection was rated on the following scale.
1 = disease symptoms in main stem
2 = disease symptoms in petiole
3 = disease symptoms in the leaf only
4 = complete control of disease
The results are shown below as the mean disease control rating.

[8] = tested on: mycoplasma which causes aster yellows; test: Aster yellows disease test; type: in vivo, aster plants; conditions: 20 days
Source text: The following data report a test of an exemplary compound against aster yellows disease. The compound, [2-(4-carbamoyl-3-nitropyrazol-1-yl)ethyl] phenyl carbonate, was applied to aster plants as an aqueous dispersion at concentrations shown below. Two plants were sprayed with each concentration. Each pair of plants was placed in a wire mesh cage, and four leafhoppers infected with the mycoplasma which causes aster yellows were placed in each cage. After 20 days, the plants were observed and disease control was rated as the percent of the plants' surface affected by the disease.

[9] = Staphylococcus aureus sp. 1130, tube dilution
[10] = Staphylococcus aureus, SP.1130, Staphyloccocus 1130, tube dilution

MIC (Mycoplasma gallisepticum) [µg/mL]	MIC (Escherichia coli) [µg/mL]	MIC (Streptococcus sp. 80) [µg/mL]	MIC (Salmonella dublin) [µg/mL]	MIC [2, 9] [µg/mL]	MIC (Vibrio coli 3811) [µg/mL]	MIC (Pasteurella multocida) [µg/mL]	SMILES	Active Level (lowest feed concentration which gave an active response) (H. meleagridis [1])	responders at 60 mg/kg (Salmonella typhimurium) [%]	further results
50 (≈ 294 µM)	12.5 (≈ 73.5 µM)	100 (≈ 588 µM)	6.25 (≈ 36.7 µM)	12.5 (≈ 73.5 µM)	6.25 (≈ 36.7 µM)		Cn1cc(C(N)=O)c([N+](=O)[O-])n1 [Compound 3, 1-methyl-3-nitro-4-pyrazolecarboxamide]	.02%		Percent Control of fire blight (Erwinia amylovora; 100 ppm.): 25%; Percent Control of fire blight (Erwinia amylovora; 500 ppm.): 75%
50 (≈ 233 µM)	12.5 (≈ 58.4 µM)	> 50	12.5 (≈ 58.4 µM)	50 (≈ 233 µM)	50 (≈ 233 µM)	50 (≈ 233 µM)	COCCn1cc(C(N)=O)c([N+](=O)[O-])n1 [Compound 65, 1-(2-methoxyethyl)-3-nitro-4-pyrazolecarboxamide]	.02%	70	
> 50	50 (≈ 238 µM)	> 50	50 (≈ 238 µM)	50 (≈ 238 µM)	50 (≈ 238 µM)	25 (≈ 119 µM)	NC(=O)c1cn(CC2CC2)nc1[N+](=O)[O-] [Compound 90, 1-cyclopropylmethyl-3-nitro-4-pyrazolecarboxamide]	.02%	80	

The remaining lines, values behind:

SMILES	MIC (Mycoplasma gallisepticum) [µg/mL]	MIC (Escherichia coli) [µg/mL]	MIC (Streptococcus sp. 80) [µg/mL]	MIC (Salmonella dublin) [µg/mL]	MIC [2, 9] [µg/mL]	MIC (Vibrio coli 3811) [µg/mL]	MIC (Pasteurella multocida) [µg/mL]	Active Level (lowest feed concentration which gave an active response) (H. meleagridis [1])	responders at 60 mg/kg (Salmonella typhimurium) [%]	further results
CNc1nnc(-c2cn(C)nc2[N+](=O)[O-])s1 [Compound 2, 2-(1-methyl-3-nitro-4-pyrazolyl)-5-methylamino-1,3,4-thiadiazole]	6.25 (≈ 26 µM)	50 (≈ 208 µM)	50 (≈ 208 µM)	50 (≈ 208 µM)	50 (≈ 208 µM)	25 (≈ 104 µM)		.02%		chicks protected of the 5-bird treated group (Salmonella typhimurium; salmonella challenge): at least three chicks of the 5-bird treated group
NC(=O)c1cn(CCc2ccccc2)nc1[N+](=O)[O-] [Compound 17, 1-phenethyl-3-nitro-4-pyrazolecarboxamide]								.0067%		Active Level (lowest feed concentration which gave an active response) (H. meleagridis [3]): .02%
CCOCCn1cc(C(N)=O)c([N+](=O)[O-])n1 [Compound 34, 1-(2-ethoxyethyl)-3-nitro-4-pyrazolecarboxamide]				25 (≈ 110 µM)		50 (≈ 219 µM)	25 (≈ 110 µM)		40	Percent Control of fire blight (Erwinia amylovora; 100 ppm.): 33%; Percent Control of fire blight (Erwinia amylovora; 500 ppm.): 66%; MIC [4]: 50 µg/mL (≈ 219 µM); MIC [5]: 100 µg/mL (≈ 438 µM); Days Survived (Streptococcus pyogenes): 5.0 days; ED50 (E. coli): > 41 mg/kg; Days Survived (E. coli): 7.0 days; Survival (S. typhimurium): 25/48; Avg. Wt. (S. typhimurium; surviving chicks): 62 gm.; Active Level (lowest feed concentration which gave an active response) (H. meleagridis [3]): .02%; E. coli Lesions (avian E. coli): 11/30; Mortality (avian E. coli): 0/30; Wt. (avian E. coli): 1136 gm.; MIC (Pseudomonas sp.): 50 µg/mL (≈ 219 µM); MIC (Mycoplasma hyorhinis): 50 µg/mL (≈ 219 µM); MIC [2, 10]: 6.25 µg/mL (≈ 27.4 µM)
CNC(=O)c1cn(CCO)nc1[N+](=O)[O-] [Compound 58, 1-(2-hydroxyethyl)-N-methyl-3-nitro-4-pyrazolecarboxamide]				12.5 (≈ 58.4 µM)		25 (≈ 117 µM)	0.78 (≈ 3.64 µM)		90	MIC [4]: 6.25 µg/mL (≈ 29.2 µM); MIC [5]: 10 µg/mL (≈ 46.7 µM); Days Survived (Streptococcus pyogenes): 1.8 days; ED50 (E. coli): 40 mg/kg; Days Survived (E. coli): 7.0 days; MIC (Salmonella pullorum Ill.): 3.12 µg/mL (≈ 14.6 µM); MIC [6]: 12.5 µg/mL (≈ 58.4 µM); MIC [7]: 12.5 µg/mL (≈ 58.4 µM); MIC (Pseudomonas sp.): 25 µg/mL (≈ 117 µM); MIC [2, 10]: 12.5 µg/mL (≈ 58.4 µM)
COC(=O)c1cn(CCO)nc1[N+](=O)[O-] [Compound 71, methyl 1-(2-hydroxyethyl)-3-nitro-4-pyrazolecarboxylate]		> 50	> 50	> 50	> 50	> 50	> 50			MIC (Mycoplasma synoviae): 0.39 µg/mL (≈ 1.81 µM)
NC(=O)c1cn(CCOC(=O)Oc2ccccc2)nc1[N+](=O)[O-] [Compound 77, [2-(4-carbamoyl-3-nitropyrazol-1-yl)ethyl] phenyl carbonate]								.02%	80	mean disease control rating (E. amylovora; 200 ppm.): 2.5; mean disease control rating (E. amylovora; 400 ppm.): 3.5; mean disease control rating (E. amylovora; 600 ppm.): 3.0; mean disease control rating (E. amylovora; 800 ppm.): 3.4; mean disease control rating (E. amylovora; 1000 ppm.): 3.5; mean disease control rating (E. amylovora; 1200 ppm.): 3.5; Percent Infection (percent of plants' surface affected) ([8]; Concentration 200 (unit not given)): 0%; Percent Infection (percent of plants' surface affected) ([8]; Concentration 400 (unit not given)): 25%; Percent Infection (percent of plants' surface affected) ([8]; Concentration 800 (unit not given)): 0%
